pIC50: −log10 of the molar value.
Tests used:
CDK6 cyclinD1 = CDK6 cyclinD1 (Homo sapiens, UniProt Q00534); assay: CDK6 cyclinD1 in vitro inhibition; assay type: biochemical
Experimental: (§1) The kinase or bromodomain inhibitory activity of a compound of the invention can be determined by routine methods known to the skilled artisan without undue experimentation, or by procuring relevant analysis by a commercial vendor offering such services. […] In vivo, PI3K inhibition can be determined from target tissue biopsies by standard tissue processing in which cells are disrupted and Western Blot analysis is performed to determine the presence or absence of pAKT (substrate of PI3K) relative to a control sample. PI3K inhibition assays and BTK inhibition assays are known in the art and can be procured commercially through vendors such as Reaction Biology (Malvern, PA). The activity of a compound of the invention as an inhibitor of a bromodomain-containing protein, such as a BET protein, including BRD2, BRD3, BRD4, and/or BRDT, or an isoform or mutant thereof, may be determined in vitro, in vivo, or in a cell line. In vitro assays include assays that determine inhibition of bromodomain-containing proteins. Alternatively, inhibitor binding may be determined by running a competition experiment where a provided compound is incubated with a bromodomain-containing protein, such as a BET protein bound to known ligands, labeled or unlabeled. In vitro bromodomain inhibition assays can be performed using Alpha Screen Technology (Perkin Elmer Life and Analytical Sciences, Shelton, CT). In vivo bromodomain inhibition can be determined indirectly by evaluating the amount of a protein whose gene transcription is influenced or controlled by the bromodomain protein, for example, MYCN protein transcription is controlled by BRD4 (J.E. Delmore et al., Cell 2011, 146, 904-917; A. Puissant, Cancer Discov. 2013, 3, 308-323).
(§2) IC50 inhibition data against the indicated targets were determined for compounds of the invention using standard in vitro assays (Tables 8 and 9).

BRD4-1 = target: T1, BRD4-1 (Homo sapiens, UniProt O60885); assay: BRD4-1 in vitro inhibition; assay type: binding
T1 construct: BRD4-1
Experimental: as §1

PI3K alpha = PI3K alpha (Homo sapiens, UniProt P42336); assay: PI3K alpha in vitro inhibition; assay type: biochemical
Experimental: as §1

PI3K beta = PI3K beta (Homo sapiens, UniProt P42338); assay: PI3K beta in vitro inhibition; assay type: biochemical
Experimental: as §1

CDK4 cyclinD1 = CDK4 cyclinD1 (Homo sapiens, UniProt P11802); assay: CDK4 cyclinD1 in vitro inhibition; assay type: biochemical
Experimental: as §1, §2

PI3K gamma = PI3K gamma (Homo sapiens, UniProt P48736); assay: PI3K gamma in vitro inhibition; assay type: biochemical; conditions: read-out: IC50 inhibition PI3K gamma
Experimental: as §1, §2

BRD4-2 = target: T2, BRD4-2 (Homo sapiens, UniProt O60885); assay: BRD4-2 in vitro inhibition; assay type: binding
T2 construct: BRD4-2
Experimental: as §1

BTK C481S = BTK C481S (Homo sapiens, UniProt Q06187, C481S); assay: BTK C481S in vitro inhibition; assay type: biochemical
Experimental: as §1, §2

BTK = BTK (Homo sapiens, UniProt Q06187); assay: BTK in vitro inhibition; assay type: biochemical
Experimental: as §1, §2

Sequence of CDK6 cyclinD1 (Q00534 whole entry): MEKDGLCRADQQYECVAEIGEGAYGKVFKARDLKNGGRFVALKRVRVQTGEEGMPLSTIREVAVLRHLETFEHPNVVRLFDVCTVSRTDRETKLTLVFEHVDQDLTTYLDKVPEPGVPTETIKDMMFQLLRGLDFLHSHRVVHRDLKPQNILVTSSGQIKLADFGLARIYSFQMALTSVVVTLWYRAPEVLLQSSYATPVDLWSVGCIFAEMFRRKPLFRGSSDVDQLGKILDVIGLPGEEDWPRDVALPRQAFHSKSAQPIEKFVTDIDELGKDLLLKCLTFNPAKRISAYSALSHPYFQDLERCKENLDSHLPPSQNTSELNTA
Sequence of CDK6 cyclinD1 (P24385 whole entry partner): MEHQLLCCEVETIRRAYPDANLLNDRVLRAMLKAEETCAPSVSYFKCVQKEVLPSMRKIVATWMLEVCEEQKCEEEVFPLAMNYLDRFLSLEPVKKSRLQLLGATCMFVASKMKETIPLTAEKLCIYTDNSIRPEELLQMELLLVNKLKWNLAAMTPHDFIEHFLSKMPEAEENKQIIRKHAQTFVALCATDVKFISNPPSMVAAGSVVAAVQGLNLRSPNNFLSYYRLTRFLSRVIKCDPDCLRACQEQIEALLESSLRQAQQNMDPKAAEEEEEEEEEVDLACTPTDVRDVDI
Sequence of PI3K alpha (P42336 whole entry): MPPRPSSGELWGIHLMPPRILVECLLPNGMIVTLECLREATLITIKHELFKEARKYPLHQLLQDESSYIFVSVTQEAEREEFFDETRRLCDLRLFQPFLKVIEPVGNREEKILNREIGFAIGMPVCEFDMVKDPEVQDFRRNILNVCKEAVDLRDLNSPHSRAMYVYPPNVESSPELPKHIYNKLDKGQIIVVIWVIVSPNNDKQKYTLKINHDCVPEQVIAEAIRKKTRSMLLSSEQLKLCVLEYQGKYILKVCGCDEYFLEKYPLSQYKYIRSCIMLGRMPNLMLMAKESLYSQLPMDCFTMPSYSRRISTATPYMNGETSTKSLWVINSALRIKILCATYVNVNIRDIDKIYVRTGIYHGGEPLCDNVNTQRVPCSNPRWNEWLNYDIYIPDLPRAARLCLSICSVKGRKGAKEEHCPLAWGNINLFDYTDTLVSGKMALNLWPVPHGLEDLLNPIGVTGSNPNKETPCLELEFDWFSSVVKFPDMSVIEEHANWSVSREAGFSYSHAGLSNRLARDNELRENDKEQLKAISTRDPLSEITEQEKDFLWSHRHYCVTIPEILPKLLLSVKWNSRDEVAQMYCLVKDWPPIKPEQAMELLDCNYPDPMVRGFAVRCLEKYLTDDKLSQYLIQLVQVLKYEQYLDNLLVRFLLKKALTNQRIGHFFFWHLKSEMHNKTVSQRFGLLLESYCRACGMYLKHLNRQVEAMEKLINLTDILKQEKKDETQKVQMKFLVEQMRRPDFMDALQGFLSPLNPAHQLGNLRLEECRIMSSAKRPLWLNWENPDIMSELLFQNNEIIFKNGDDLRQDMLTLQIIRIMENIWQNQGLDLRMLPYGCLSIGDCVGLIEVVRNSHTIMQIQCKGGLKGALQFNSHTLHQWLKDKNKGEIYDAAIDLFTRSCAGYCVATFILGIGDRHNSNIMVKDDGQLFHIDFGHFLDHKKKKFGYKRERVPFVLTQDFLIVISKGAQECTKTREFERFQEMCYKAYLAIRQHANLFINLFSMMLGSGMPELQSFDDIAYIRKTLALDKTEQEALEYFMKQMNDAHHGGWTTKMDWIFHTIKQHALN
Sequence of PI3K alpha (P27986 whole entry partner): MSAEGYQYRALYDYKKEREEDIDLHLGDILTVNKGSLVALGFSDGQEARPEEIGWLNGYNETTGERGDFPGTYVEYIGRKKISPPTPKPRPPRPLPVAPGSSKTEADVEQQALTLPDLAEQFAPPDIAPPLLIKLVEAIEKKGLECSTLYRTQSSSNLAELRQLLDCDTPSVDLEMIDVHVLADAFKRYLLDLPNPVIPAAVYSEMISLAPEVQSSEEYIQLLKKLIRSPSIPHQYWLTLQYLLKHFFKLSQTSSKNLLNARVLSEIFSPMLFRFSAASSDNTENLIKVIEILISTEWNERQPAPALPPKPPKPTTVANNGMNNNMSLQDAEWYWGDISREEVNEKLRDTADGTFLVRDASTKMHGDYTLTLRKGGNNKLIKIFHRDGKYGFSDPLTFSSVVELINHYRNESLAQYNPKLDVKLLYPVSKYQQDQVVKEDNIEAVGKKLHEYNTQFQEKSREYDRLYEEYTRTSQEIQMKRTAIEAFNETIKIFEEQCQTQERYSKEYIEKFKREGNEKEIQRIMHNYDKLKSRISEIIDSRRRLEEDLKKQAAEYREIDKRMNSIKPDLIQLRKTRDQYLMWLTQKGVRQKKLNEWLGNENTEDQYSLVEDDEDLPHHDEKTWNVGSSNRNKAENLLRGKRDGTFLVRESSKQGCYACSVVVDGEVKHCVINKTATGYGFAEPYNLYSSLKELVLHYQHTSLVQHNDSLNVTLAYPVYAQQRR
Sequence of PI3K gamma (P48736 whole entry): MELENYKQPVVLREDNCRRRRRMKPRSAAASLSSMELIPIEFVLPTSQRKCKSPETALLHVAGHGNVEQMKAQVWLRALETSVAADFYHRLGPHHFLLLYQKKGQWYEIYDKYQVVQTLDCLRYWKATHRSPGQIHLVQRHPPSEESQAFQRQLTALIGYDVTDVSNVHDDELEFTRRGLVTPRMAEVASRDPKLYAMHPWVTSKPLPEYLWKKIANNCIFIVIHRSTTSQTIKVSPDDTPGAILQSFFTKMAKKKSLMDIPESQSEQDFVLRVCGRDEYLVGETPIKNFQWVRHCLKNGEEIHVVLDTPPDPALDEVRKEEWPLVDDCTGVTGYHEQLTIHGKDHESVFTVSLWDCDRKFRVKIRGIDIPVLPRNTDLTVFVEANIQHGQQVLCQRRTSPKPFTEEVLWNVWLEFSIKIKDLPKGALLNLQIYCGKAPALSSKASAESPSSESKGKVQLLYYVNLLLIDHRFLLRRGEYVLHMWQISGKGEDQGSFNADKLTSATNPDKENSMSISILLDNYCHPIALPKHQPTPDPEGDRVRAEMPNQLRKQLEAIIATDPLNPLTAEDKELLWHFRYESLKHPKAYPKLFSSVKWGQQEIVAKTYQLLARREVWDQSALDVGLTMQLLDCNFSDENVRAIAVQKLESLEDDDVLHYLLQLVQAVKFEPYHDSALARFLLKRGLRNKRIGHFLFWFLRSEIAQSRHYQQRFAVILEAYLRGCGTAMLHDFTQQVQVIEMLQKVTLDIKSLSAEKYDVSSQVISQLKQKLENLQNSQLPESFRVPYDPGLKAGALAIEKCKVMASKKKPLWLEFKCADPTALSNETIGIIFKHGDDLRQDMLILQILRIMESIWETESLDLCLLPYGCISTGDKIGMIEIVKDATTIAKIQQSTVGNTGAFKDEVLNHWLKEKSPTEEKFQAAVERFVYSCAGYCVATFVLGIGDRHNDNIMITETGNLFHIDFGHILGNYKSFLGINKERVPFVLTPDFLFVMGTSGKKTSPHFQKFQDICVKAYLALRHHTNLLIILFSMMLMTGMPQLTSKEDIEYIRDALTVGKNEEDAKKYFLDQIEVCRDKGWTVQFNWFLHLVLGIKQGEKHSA
Sequence of BTK C481S (Q06187 whole entry C481S): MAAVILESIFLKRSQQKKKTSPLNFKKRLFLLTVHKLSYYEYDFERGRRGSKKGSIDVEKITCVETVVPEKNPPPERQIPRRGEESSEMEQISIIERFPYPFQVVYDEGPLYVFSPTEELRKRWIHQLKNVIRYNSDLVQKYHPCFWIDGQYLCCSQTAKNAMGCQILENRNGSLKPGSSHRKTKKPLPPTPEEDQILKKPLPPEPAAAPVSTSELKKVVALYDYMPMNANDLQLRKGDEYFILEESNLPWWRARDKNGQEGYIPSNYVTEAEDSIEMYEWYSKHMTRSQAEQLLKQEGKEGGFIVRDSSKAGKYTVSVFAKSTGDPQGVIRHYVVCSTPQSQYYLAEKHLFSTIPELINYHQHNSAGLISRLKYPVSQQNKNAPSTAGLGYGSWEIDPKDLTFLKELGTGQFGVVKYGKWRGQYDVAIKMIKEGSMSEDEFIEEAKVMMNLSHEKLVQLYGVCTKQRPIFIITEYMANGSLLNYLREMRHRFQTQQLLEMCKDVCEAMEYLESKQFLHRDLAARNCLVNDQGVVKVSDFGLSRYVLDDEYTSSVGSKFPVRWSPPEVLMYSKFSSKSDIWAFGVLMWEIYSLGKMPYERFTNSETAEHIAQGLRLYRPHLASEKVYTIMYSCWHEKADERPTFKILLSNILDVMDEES
Sequence of CDK4 cyclinD1 (P11802 whole entry): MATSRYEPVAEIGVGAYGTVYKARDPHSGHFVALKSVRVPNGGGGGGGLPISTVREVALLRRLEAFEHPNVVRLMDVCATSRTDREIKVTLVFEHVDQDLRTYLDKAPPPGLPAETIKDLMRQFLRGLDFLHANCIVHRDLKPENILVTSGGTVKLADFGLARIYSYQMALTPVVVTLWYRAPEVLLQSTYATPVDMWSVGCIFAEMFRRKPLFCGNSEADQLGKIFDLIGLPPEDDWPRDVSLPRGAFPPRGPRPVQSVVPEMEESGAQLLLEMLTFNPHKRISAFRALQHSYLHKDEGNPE
Sequence of CDK4 cyclinD1 (P24385 whole entry partner): as the sequence (P24385 whole entry partner) above
Sequence of BTK (Q06187 whole entry): as the sequence (Q06187 whole entry C481S) above, with S481C counted along it

| Structure (SMILES) | pIC50 (CDK6 cyclinD1) | pIC50 (BRD4-1) | pIC50 (PI3K alpha) | pIC50 (PI3K beta) | pIC50 (CDK4 cyclinD1) | pIC50 (PI3K gamma) | pIC50 (BRD4-2) | pIC50 (BTK C481S) | pIC50 (BTK) |
| --- | --- | --- | --- | --- | --- | --- | --- | --- | --- |
| CC(C)n1c(C(=O)N(C)C)cc2cnc(Nc3ccc(-c4csc5c(=O)cc(N6CCOCC6)oc45)cc3)nc21 [Compound 25] | > 6.30 | > 6.30 | > 6.30 | > 6.30 | > 6.30 | 5.00 to 6.00 | > 6.30 | – | – |
| COC(=O)c1cc(-c2csc3c(=O)cc(N4CCOCC4)oc23)ccc1Nc1ncc2cc(C(=O)N(C)C)n(C3CCCC3)c2n1 [Compound 11] | < 4.35 | > 6.30 | > 6.30 | > 6.30 | < 4.35 | 5.00 to 6.00 | 5.00 to 6.00 | – | – |
| CN(C)C(=O)c1cc2cnc(N3CCOc4cc(-c5csc6c(=O)cc(N7CCOCC7)oc56)ccc43)nc2n1C1CCCC1 [Compound 24] | – | – | > 6.30 | > 6.30 | < 4.35 | 5.00 to 6.00 | – | – | – |
| CN(C)C(=O)c1cc2cnc(Nc3ccc(-c4csc5c(=O)cc(N6CCOCC6)oc45)c(C(=O)O)c3)nc2n1C1CCCC1 [Compound 14] | 4.35 to 5.00 | < 4.35 | > 6.30 | > 6.30 | 4.35 to 5.00 | > 6.30 | 4.35 to 5.00 | – | – |
| C=CC(=O)N1CCOc2ccc(-c3csc4c(=O)cc(N5CCNCC5)oc34)cc21 [Compound 26] | – | > 6.30 | 4.35 to 5.00 | 5.00 to 6.00 | – | < 4.35 | – | 4.35 to 5.00 | > 6.30 |
| CN(C)C(=O)c1cc2cnc(N(c3cncc(-c4csc5c(=O)cc(N6CCOCC6)oc45)c3)c3ncc4cc(C(=O)N(C)C)n(C5CCCC5)c4n3)nc2n1C1CCCC1 [Compound 21] | 6.00 to 6.30 | 5.00 to 6.00 | 5.00 to 6.00 | 5.00 to 6.00 | > 6.30 | 4.35 to 5.00 | 5.00 to 6.00 | – | – |
| CN(C)C(=O)c1cc2cnc(Nc3cc(C(=O)O)cc(-c4csc5c(=O)cc(N6CCOCC6)oc45)c3)nc2n1C1CCCC1 [Compound 20] | < 4.35 | 4.35 to 5.00 | 5.00 to 6.00 | 5.00 to 6.00 | 4.35 to 5.00 | < 4.35 | < 4.35 | – | – |
| CN(C)C(=O)c1cc2cnc(Nc3ccc(-c4csc5c(=O)cc(N6CCOCC6)oc45)cn3)nc2n1C1CCCC1 [Compound 8] | > 6.30 | > 6.30 | > 6.30 | > 6.30 | > 6.30 | 6.00 to 6.30 | > 6.30 | – | – |
| O=C(NCc1cccnc1)c1cc(-c2csc3c(=O)cc(N4CCNCC4)oc23)cc2c1OCCO2 [Compound 3] | – | > 6.30 | 5.00 to 6.00 | 5.00 to 6.00 | – | 4.35 to 5.00 | 5.00 to 6.00 | – | – |
| N#C/C(=C\C1CC1)C(=O)Nc1cccc(-c2csc3c(=O)cc(N4CCOCC4)oc23)c1 [Compound 35] | – | – | > 6.30 | > 6.30 | – | – | 6.00 to 6.30 | 4.35 to 5.00 | 4.35 to 5.00 |
| CN(C)C(=O)c1cc2cnc(Nc3ccc(-c4csc5c(=O)cc(N6CCOCC6)oc45)cc3C(=O)O)nc2n1C1CCCC1 [Compound 13] | < 4.35 | 6.00 to 6.30 | > 6.30 | > 6.30 | < 4.35 | 6.00 to 6.30 | 6.00 to 6.30 | – | – |
| C=CC(=O)Nc1cccc(-c2csc3c(=O)cc(N4CCNCC4)oc23)c1 [Compound 27] | – | 6.00 to 6.30 | < 4.35 | < 4.35 | – | < 4.35 | – | 4.35 to 5.00 | – |
| O=c1cc(N2CCNCC2)oc2c(-c3ccc4c(c3)OCCO4)csc12 [Compound 1] | – | > 6.30 | < 4.35 | 4.35 to 5.00 | – | < 4.35 | 4.35 to 5.00 | – | – |
| CN(C)C(=O)c1cc2cnc(Nc3cncc(-c4csc5c(=O)cc(N6CCOCC6)oc45)c3)nc2n1C1CCCC1 [Compound 19] | > 6.30 | 5.00 to 6.00 | 6.00 to 6.30 | > 6.30 | > 6.30 | 5.00 to 6.00 | 5.00 to 6.00 | – | – |
| CN1CCN(c2cc(=O)c3scc(-c4cc5c(c(C(=O)NCc6cccnc6)c4)OCCO5)c3o2)CC1 [Compound 4] | – | > 6.30 | 4.35 to 5.00 | 5.00 to 6.00 | – | 4.35 to 5.00 | 5.00 to 6.00 | – | – |
